Measurements: ChEMBL document CHEMBL1201862, “PubChem BioAssay data set” (2004)
Calls of active or inactive are those of the source.

How the values were obtained:
[1] = growth suppression of beta-catenin-knockout colon cells, dose response, cell-based, HCT116, human colon tumor (AID 1045); type: functional;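 note: HCT116 colon tumor cells with beta catenin knocked out; cells exposed to compound for 60 hours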
[2] = A Cell Based Secondary Assay To Explore Cytotoxicity of Compounds that Sensitize Mycobacterium Tuberculosis to Beta-Lactam Antibiotics.; type: functional
[3] = growth suppression of PTEN-null colon cells, dose response, cell-based, HCT116 PTEN knockout (AID 1047); type: functional;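 note: HCT116 colon tumor cells with PTEN knocked out; cells exposed to compound for 60 hours before readout; potency for loss of cell viability measured by luminescence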
[4] = LGR2 antagonists, dose response, cell-based, HEK293, CRE-luciferase reporter, cherry pick, set 2 (AID 743343); type: functional;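 note: transfected cells were stimulated with diluted bursicon conditioned medium after compound addition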
[5] = MC4R antagonists, dose response, counter-screen for LGR2 antagonist project, cell-based, plate reader, cherry pick (AID 743444); type: functional;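 note: transfected HEK 293 cells stimulated with alpha-MSH peptide; potency of inhibitors of the alpha-MSH evoked signal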
[6] = A549 cell cytotoxicity, dose response, cytotoxicity control, plate reader, cherry-pick, antagonist series (AID 743412); type: functional, cell-based
[7] = molecular target: Cytochrome P450 2C19 (Homo sapiens, UniProt P33261); assay: Cytochrome panel assay with activity outcomes. Panel member name: p450-cyp2c19 Compounds with AC50 equal or less than 10 uM are considered active; type: functional; details: read-out: AC50
[8] = cytotoxicity in HEK-293T cells, dose response, cytotoxicity control for TCR NF-kB inhibitor project, luminescence, T-cell screen hits (AID 489026); type: functional, cell-based;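 note: cells exposed to compound about 14 hours before the viability readout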
[9] = test system: SN12K1; assay: cells; type: functional; details: Homo sapiens
[10] = test system: P388/ADR; assay: cells; type: functional; details: Mus musculus
[11] = ZM109 Env clade C HIV-1 fusion inhibitors, dose response, HeLa effector, CEM target cells, luciferase, cherry-pick (AID 652058); type: functional, cell-based
[12] = inhibitors of HIV Env-driven cell fusion, dose response, cherry-pick (AID 652057); type: functional, cell-based
[13] = P. falciparum 3D7-ScDHODH growth inhibitors, dose response, SYBR Green, dry powder samples (AID 1159570); type: functional, cell-based;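 note: parasite growth measured after 72 hours of compound exposure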
[14] = P. falciparum Dd2 growth inhibitors, dose response, SYBR Green, dry powder samples (AID 1159566); type: functional, cell-based;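 note: potency for growth inhibition with lower SYBR green DNA signal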
[15] = P. falciparum Dd2 growth inhibitors, dose response, SYBR Green, cherry-picked samples (AID 1159567); type: functional, cell-based
[16] = inhibitors of clade B AD8 Env fusion, dose response, cell-based, cherry-pick (AID 652062); type: functional;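 note: luciferase signal from cell-cell fusion driven by HIV-1 clade B AD8 Env; potency is for inhibitors of fusion seen as a drop in luminescence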
[17] = P. falciparum ATP4 D1247Y mutant growth inhibitors, dose response, NITD609-resistant line, SYBR Green, dry powder (AID 1159571); type: functional, cell-based;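 note: parasites synchronized at ring stage by sorbitol before testing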
[18] = molecular target: T1, Sentrin-specific protease 6 (Homo sapiens, UniProt Q9GZR1); type: functional;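 note: Luminescence-based dose-response confirmatory assay of SENP6 inhibition, following up an ultra-high-throughput screen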
T1 sequence (Q9GZR1 whole entry): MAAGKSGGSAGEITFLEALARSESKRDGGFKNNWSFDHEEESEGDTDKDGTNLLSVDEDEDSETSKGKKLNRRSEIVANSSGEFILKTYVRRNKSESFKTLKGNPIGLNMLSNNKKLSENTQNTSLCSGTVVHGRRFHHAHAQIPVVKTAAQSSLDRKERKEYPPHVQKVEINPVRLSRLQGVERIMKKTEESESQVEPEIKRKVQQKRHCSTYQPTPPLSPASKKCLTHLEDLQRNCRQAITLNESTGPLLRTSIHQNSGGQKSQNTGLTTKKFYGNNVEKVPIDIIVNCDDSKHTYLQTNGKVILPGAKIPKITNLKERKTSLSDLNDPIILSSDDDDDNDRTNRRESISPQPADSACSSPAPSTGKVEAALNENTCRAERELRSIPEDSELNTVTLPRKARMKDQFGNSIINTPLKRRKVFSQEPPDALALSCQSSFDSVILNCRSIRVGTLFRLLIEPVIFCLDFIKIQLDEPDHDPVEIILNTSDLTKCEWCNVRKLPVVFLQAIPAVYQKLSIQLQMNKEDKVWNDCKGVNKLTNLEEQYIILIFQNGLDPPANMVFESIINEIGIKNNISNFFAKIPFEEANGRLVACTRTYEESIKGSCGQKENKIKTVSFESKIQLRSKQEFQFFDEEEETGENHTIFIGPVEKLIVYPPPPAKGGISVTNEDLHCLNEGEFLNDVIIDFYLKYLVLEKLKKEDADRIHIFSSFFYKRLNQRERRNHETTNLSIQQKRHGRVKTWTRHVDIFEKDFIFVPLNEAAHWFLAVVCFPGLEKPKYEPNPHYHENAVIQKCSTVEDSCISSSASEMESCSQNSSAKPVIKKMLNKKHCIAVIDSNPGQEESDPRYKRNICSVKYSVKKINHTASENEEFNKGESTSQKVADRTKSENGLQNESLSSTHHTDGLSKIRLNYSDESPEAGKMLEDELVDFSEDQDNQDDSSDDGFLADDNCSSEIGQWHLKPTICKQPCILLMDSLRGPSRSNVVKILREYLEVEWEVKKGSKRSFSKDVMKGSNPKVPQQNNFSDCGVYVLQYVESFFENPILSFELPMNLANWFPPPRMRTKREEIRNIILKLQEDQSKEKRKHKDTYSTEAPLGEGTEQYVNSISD

[19] = test system: Streptococcus sp. 'group A'; assay: growth inhibition of control SK(-) GAS strain, dose response, counter-screen for streptokinase expression inhibitor project, luminescence, kanamycin, BacTiterGlo, confirmation (AID 1900); type: functional, organism-based
[20] = test system: Streptococcus; assay: Group A Streptococcus viability loss, dose response, counter-screen for streptokinase expression inhibitor project, luminescence, BacTiterGlo (AID 1915); type: functional, organism-based;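 note: potency for reduction of bacterial viability or growth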
[21] = molecular target: T2, Caspase-3 (Homo sapiens, UniProt P42574); type: functional;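 note: Dose-response selectivity test against caspase-3 for candidate inhibitors of sentrin-specific proteases (SENPs)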
T2 sequence (P42574 whole entry): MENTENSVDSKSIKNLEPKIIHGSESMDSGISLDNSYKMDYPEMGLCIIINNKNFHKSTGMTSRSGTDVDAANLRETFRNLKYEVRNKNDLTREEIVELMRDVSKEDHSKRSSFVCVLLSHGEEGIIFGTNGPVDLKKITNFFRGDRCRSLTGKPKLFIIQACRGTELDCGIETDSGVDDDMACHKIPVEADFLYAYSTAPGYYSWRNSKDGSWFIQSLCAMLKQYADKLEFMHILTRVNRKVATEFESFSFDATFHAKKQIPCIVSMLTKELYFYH

[22] = molecular target: T3, Sentrin-specific protease 7 (Homo sapiens, UniProt Q9BQF6); type: functional;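 note: Luminescence-based dose-response confirmation of ultra-high-throughput screening hits, measuring inhibition of SENP7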
T3 sequence (Q9BQF6 whole entry): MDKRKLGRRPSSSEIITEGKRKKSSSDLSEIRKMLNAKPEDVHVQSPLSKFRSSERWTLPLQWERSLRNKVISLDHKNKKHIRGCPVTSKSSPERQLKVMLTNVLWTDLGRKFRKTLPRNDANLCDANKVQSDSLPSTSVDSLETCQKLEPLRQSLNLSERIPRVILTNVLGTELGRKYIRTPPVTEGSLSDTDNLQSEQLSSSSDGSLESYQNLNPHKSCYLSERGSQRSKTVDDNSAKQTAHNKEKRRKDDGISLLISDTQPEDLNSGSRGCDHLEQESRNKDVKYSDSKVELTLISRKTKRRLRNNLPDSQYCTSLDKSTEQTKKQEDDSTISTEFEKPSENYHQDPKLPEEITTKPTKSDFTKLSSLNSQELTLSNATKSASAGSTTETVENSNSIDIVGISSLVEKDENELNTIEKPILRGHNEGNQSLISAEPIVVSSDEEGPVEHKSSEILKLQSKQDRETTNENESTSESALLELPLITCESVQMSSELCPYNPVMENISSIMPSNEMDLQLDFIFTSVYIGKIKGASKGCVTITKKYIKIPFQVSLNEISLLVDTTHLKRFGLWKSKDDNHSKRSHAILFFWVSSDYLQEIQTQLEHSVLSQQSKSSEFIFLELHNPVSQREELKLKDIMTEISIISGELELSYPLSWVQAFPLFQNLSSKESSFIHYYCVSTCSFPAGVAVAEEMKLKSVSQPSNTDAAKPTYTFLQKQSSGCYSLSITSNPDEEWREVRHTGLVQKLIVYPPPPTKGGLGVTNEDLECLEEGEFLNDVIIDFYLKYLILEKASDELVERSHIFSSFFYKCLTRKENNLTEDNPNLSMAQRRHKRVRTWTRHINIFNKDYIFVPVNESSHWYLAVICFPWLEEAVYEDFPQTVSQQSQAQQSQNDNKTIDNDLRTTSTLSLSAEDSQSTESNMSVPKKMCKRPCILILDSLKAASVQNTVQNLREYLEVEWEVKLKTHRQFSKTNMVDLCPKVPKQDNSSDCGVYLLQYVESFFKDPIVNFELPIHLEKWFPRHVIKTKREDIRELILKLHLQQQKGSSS

[23] = molecular target: T4, Streptokinase A (Streptococcus pyogenes serotype M1, UniProt P10520); assay: S. pyogenes streptokinase expression inhibitors, potency, dose response, plasminogen activation absorbance, OD405 (AID 1914); type: functional, Streptococcus pyogenes M1 GAS;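 note: secreted streptokinase activity via plasminogen activation per viability signal from cell pellet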
T4 sequence (P10520 whole entry): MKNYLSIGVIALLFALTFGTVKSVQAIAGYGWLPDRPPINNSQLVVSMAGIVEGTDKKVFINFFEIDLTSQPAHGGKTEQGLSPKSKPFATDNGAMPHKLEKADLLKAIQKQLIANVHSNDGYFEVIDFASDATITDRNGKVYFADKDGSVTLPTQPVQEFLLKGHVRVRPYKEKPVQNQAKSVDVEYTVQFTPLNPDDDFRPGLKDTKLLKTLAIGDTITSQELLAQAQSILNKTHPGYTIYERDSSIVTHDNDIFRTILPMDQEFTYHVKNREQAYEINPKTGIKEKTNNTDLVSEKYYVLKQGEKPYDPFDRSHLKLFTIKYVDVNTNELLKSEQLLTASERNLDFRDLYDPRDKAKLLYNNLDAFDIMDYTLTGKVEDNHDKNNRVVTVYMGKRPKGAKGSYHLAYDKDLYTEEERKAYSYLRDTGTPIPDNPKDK

[24] = molecular target: T5, Sentrin-specific protease 8 (Homo sapiens, UniProt Q96LD8); type: functional;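 note: luminescence read-out of SENP8 inhibition, dose-response confirmation following an ultra-high-throughput screen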
T5 sequence (Q96LD8 whole entry): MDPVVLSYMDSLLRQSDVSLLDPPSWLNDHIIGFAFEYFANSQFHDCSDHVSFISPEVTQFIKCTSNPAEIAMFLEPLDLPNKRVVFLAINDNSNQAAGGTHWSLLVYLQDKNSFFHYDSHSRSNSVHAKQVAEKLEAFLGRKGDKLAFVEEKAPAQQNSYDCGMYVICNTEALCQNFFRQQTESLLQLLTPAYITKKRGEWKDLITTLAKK

Chain of Cytochrome P450 2C19 (P33261 whole entry): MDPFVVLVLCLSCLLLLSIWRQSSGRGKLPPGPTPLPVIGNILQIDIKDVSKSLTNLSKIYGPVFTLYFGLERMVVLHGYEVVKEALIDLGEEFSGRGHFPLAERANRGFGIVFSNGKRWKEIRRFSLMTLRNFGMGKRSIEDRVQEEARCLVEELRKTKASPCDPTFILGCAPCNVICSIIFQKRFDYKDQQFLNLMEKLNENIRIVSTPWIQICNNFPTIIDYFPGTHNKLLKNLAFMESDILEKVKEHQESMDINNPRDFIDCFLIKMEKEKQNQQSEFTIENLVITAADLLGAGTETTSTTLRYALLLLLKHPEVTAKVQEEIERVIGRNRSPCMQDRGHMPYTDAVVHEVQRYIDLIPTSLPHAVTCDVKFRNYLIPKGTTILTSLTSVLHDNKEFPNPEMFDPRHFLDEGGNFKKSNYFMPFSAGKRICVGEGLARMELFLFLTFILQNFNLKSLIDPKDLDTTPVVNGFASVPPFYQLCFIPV

Compound: COc1ccc(C(=O)Nc2ccccc2C(=O)NC(C(=O)NCc2ccco2)C(C)C)cc1 (configuration not stated)
- EC50 [1]: 8.16 µM (active)
- CC50 [2]: 16.9 µM (active)
- EC50 [3]: 4.63 µM (active)

Compound: Cc1ccc(S(=O)(=O)N2CCCCC2)cc1NC(=O)c1ccc2c(=O)n3c(nc2c1)CCCCC3
- AC50 [4]: 12.8 µM (active)
- AC50 [5]: 12.4 µM (active)
- AC50 [6]: 26.8 µM (active)

Compound: Cc1ccc(-n2c(SCC(=O)NCc3ccco3)nc3sc4c(c3c2=O)CC(C)(C)SC4)cc1
- AC50 [7]: 8.91 µM (inconclusive)
- CC50 [2]: > 40 µM (active)

Compound: CCNC(=O)CCn1nc(-c2ccc(Cl)cc2)c2ccccc2c1=O
- CC50 [2]: > 40 µM (active)

Compound: CCCC[C@@H](C)C[C@@H](C)C(=O)N(C)[C@@H](CC(C)C)C(=O)N[C@H](C(=O)N(C)[C@H](C(=O)N1C[C@@H](O)C[C@H]1C(=O)N1C(=O)C=C[C@@H]1C)C(C)C)C(C)OC(C)=O (some centres not stated)
- IC50 [8]: 18.6 µM (active)

Compound: C=C1C(O)C2(O)OCC34C(CC5C(C)=CC(=O)C(O)C5(C)C23)OC(=O)C(OC(=O)C/C=C(\C)CCCCC)C14 (configuration not stated)
- GI50 [9]: 0.0125 µM (active)
- GI50 [10]: 0.0933 µM (active)

Compound: C[C@@H]1CN([C@@H](C)CO)C(=O)c2cccc(NC(=O)c3ccc(-c4nccs4)cc3)c2O[C@H]1CN(C)CC1CC1
- AC50 [11]: 40.2 µM (active)

Compound: COc1ccc(S(=O)(=O)Nc2ccc3c(c2)CC(=O)N([C@H](C)CO)C[C@H](C)[C@H](CN(C)S(=O)(=O)c2ccc(C)cc2)O3)cc1
- AC50 [12]: < 0.26 µM (active)
- AC50 [13]: 1.89 µM (active)
- AC50 [14]: 1.88 µM (active)
- AC50 [11]: 0.33 µM (active)
- AC50 [15]: 1.89 µM (active)
- AC50 [16]: 1.01 µM (active)
- AC50 [17]: 1.6 µM (active)

Compound: CN(C)c1ccc(/C=N/Nc2nc3ccccc3o2)cc1
- IC50 [18]: 1.72 µM (active)
- EC50 [19]: > 150 µM (not active)
- EC50 [20]: > 150 µM (not active)
- IC50 [21]: 2.05 µM (active)
- IC50 [22]: < 1.55 µM (active)
- EC50 [23]: > 150 µM (not active)
- IC50 [24]: 1.74 µM (active)
